Test [1] concerns the target T1, FPRL1 (Homo sapiens, UniProt P25090).
T1 construct: expressed in transfected cells; host or cells: CHO-Gal6 (CHO cells with G alpha 16)
T1 sequence (P25090 1-351): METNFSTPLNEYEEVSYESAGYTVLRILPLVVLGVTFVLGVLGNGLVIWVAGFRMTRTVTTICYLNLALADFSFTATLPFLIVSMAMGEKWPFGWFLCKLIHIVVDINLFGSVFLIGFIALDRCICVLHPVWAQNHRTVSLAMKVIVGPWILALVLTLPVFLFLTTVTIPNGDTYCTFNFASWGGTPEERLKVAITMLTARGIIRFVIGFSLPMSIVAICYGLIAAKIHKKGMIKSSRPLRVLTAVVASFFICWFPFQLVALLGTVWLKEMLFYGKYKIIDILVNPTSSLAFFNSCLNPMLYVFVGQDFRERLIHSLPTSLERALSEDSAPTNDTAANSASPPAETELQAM
As to the kind of experiment: compound-induced calcium activity on FLIPR Tetra in CHO-Gal6 cells stably expressing FPRL1. It counts as cell-based. Particulars: calcium, FLIPR Tetra; for EC50: tested 0.61 to 10,000 nM, read-out: FPRL1 EC50; for FPRL1 (rel. eff.): relative efficacy. How it is done:
(§1) CHO-Gal6 cells stably expressing FPRL1 were cultured in (F12, 10% FBS, 1% PSA, 400 μg/ml geneticin and 50 μg/ml hygromycin) and HEK-Gqi5 cells stable expressing FPR1 were cultured in (DMEM high glucose, 10% FBS, 1% PSA, 400 μg/ml geneticin and 50 μg/ml hygromycin). In general, the day before the experiment, 18,000 cells/well were plated in a 384-well clear bottom poly-d-lysine coated plate. The following day the screening compound-induced calcium activity was assayed on the FLIPR^Tetra. The drug plates were prepared in 384-well microplates using the EP3 and the MultiPROBE robotic liquid handling systems. Compounds were tested at concentrations ranging from 0.61 to 10,000 nM. Results are expressed as EC50 (nM) and efficacy values.

Test [2] addresses T2, FPR1 (Homo sapiens, UniProt P21462).
T2 construct: expressed in transfected cells; host or cells: HEK-Gqi5 (HEK cells with chimeric G protein Gqi5)
T2 sequence (P21462 1-350): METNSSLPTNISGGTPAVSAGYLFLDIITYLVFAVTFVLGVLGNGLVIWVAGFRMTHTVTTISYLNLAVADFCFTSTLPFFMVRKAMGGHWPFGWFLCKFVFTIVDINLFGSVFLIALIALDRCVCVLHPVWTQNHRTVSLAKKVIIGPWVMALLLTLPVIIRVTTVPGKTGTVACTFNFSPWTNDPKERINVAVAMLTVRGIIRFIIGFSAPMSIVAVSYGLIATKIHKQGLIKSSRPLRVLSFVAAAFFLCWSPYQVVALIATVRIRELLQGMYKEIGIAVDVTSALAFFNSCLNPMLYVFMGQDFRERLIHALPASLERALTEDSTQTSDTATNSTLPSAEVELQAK
Briefly: compound-induced calcium activity on FLIPR Tetra in HEK-Gqi5 cells stable expressing FPR1. It is filed as cell-based. Further details: FPR1 (rel. eff.): scale not given here. Particulars: for FPR1 (rel. eff.): relative efficacy. How it is done: as §1

The mark [3] stands for this setting: class symbol NA, read-out: FPR1 EC50 (NA = Not Active).
[4] abbreviates: calcium, FLIPR Tetra, tested 0.61 to 10,000 nM, read-out: FPR1 EC50.

Read-outs that look alike come from different tables or passages of the source.

Regarding `CSc1ccc(NC(=O)C2C(C(=O)O)C3C=CC2C32CC2)cc1` (racemic) [Compound 35, (+/−)-(1S,4R,5S,6R)-6-((4-(Methylthio)phenyl)carbamoyl)spiro[bicyclo-[2.2.1]hept[2]ene-7,1′-cyclopropane]-5-carboxylic Acid], the figures for the EC50 in test [1] and in test [2] (setting [3]) were 14 nM and more than 10 µM, respectively. In addition, the “FPRL1 (rel. eff.)” value in test [1] worked out at 0.85.
For `N#C[C@@H]1[C@H](C(=O)Nc2ccc(Br)cc2)[C@@H]2CC[C@H]1C21CC1` (racemic) [Compound 89, (+/−)-(1S,2R,3S,4R)—N-(4-Bromophenyl)-3-cyanospiro[bicyclo[2.2.1]heptane-7,1′-cyclopropane]-2-carboxamide] the same measures were 1090 nM, more than 10 µM and 0.82.
For the compound `O=C(O)C1C(C(=O)Nc2ccc(SC(F)(F)F)cc2)C2C=CC1C21CC1` (racemic) [Compound 4, (+/−)-(1S,4R,5S,6R)-6-(4-(Trifluoromethylthio)phenylcarbamoyl)Spiro[bicyclo[2.2.1]hept[2]ene-7,1′-cyclopropane]-5-carboxylic Acid], in test [1], the EC50 is 709 nM and the “FPRL1 (rel. eff.)” value is given as 0.84. In addition, in test [2] (setting [3]), the EC50 was more than 10 µM.
For `CCc1ccc(NC(=O)C2C(C(N)=O)C3C=CC2C32CC2)cc1` (racemic) [Compound 48, (+/−)-(1R,4S,5R,6S)—N-5-(4-Ethylphenyl)spiro[bicyclo[2.2.1]hept[2]ene-7,1′-cyclopropane]-5,6-dicarboxamide] the same measures were 51 nM, 0.79 and more than 10 µM.
Regarding `CC(C)OC(=O)C1C(C(=O)Nc2ccc(I)cc2)C2C=CC1C21CC1` (racemic) [Compound 18, Iso-propyl(+/−)-(1S,4R,5S,6R)-6-(4-Iodophenylcarbamoyl)spiro[bicyclo[2.2.1]hept[2]ene-7,1′-cyclopropane]-5-carboxylate], the EC50 was 187 nM in test [1] and more than 10 µM in test [2] (setting [3]). Moreover, the “FPRL1 (rel. eff.)” value in test [1] was 0.72.
For `CCc1ccc(NC(=O)[C@H]2[C@@H](C(N)=O)[C@H]3CC[C@@H]2C3(C)C)cc1` (racemic) [Compound 65, (+/−)-(1S,2R,3S,4R)—N^2-(4-Ethylphenyl)-7,7-dimethyl-bicyclo[2.2.1]heptane-2,3-dicarboxamide], in test [1], the EC50 was 35 nM and the “FPRL1 (rel. eff.)” value is 0.95. Moreover, in test [2] (setting [3]), the EC50 is more than 10 µM.
Turning to `O=C(O)C1C(C(=O)Nc2cccc(C(F)(F)F)c2)C2CCC1C21CC1` (racemic) [Compound 37, (+/−)-(1R,2S,3R,4S)-3-β3-(Trifluoromethyl)phenyl)carbamoyl)spiro[bicyclo-[2.2.1]heptane-7,1′-cyclopropane]-2-carboxylic Acid], in test [1], the EC50 came out at 978 nM and the “FPRL1 (rel. eff.)” value was determined as 0.86.
Regarding `COC(=O)C1C(C(=O)Nc2ccc(I)cc2)C2C=CC1C21CC1` (racemic) [Compound 16, Methyl(+/−)-(1S,4R,5S,6R)-6-(4-Iodophenylcarbamoyl)spiro[bicyclo[2.2.1]hept[2]ene-7,1′-cyclopropane]-5-carboxylate], in test [1], the EC50 stood at 403 nM and the “FPRL1 (rel. eff.)” value is 0.72.
`O=C(O)[C@@H]1[C@H](C(=O)Nc2ccc(Cl)cc2)[C@@H]2CC[C@H]1C21CC1` (racemic) [Compound 11, (+/−)-(1R,2S,3R,4S)-3-(4-Chlorophenylcarbamoyl)spiro[bicyclo[2.2.1]heptane-7,1′-cyclopropane]-2-carboxylic Acid]: in test [1], the EC50 turned out to be 43 nM and the “FPRL1 (rel. eff.)” value stood at 0.86.
In the case of “(+/−)-(1R,2S,3R,4S)-3-((4-(Methylsulfonyl)phenyl)carbamoyl)spiro[bicyclo[2.2.1]-heptane-7,1′-cyclopropane]-2-carboxylic Acid [Compound 71]”, the EC50 in test [2] (setting [3]) was more than 10 µM.
Regarding `COc1ccccc1NC(=O)[C@H]1[C@@H](C(=O)O)[C@H]2CC[C@@H]1C21CC1` (racemic) [Compound 39, (+/−)-(1R,2S,3R,4S)-3-((2-Methoxyphenyl)carbamoyl)spiro[bicyclo[2.2.1]heptane-7,1′-cyclopropane]-2-carboxylic Acid], in test [1], the EC50 is more than 3000 nM and the “FPRL1 (rel. eff.)” value worked out at 1.2.
`CN(C)C(=O)C1C(C(=O)Nc2ccc(Br)cc2)C2C=CC1C21CC1` (racemic) [Compound 76, (+/−)-(1S,4S,5R,6S)—N^5-(4-Bromophenyl)-N^6,N^6-dimethylspiro[bicyclo[2.2.1]hept[2]ene]-7,1′-cyclopropane]-5,6-dicarboxamide]: in test [1], the EC50 amounted to 3720 nM and the “FPRL1 (rel. eff.)” value amounted to 0.5.
`N#Cc1ccc(-c2ccc(NC(=O)C3C(C(=O)O)C4C=CC3C43CC3)cc2)cc1` (racemic) [Compound 30, (+/−)-(1S,4R,5S,6R)-6-((4′-Cyano-[1,1′-biphenyl]-4-yl)carbamoyl)spiro[bicyclo-[2.2.1]hept[2]ene-7,1′-cyclopropane]-5-carboxylic Acid]: in test [1], the EC50 was found to be 2880 nM and the “FPRL1 (rel. eff.)” value is given as 0.97.
As to `O=C1[C@@H]2[C@H](C(=O)N1c1ccc(Br)cc1)[C@@H]1CC[C@H]2C12CC2` [Compound 90, (3aR,4S,7R,7aS)-2-(4-Bromophenyl)-hexahydro-1H-spiro[4,7-methanoisoindole-8,1′-cyclopropane]-1,3(2H)-dione], in test [1], the half-maximal effective concentration (EC50) amounted to 6560 nM and the “FPRL1 (rel. eff.)” value is 0.38.
On to `CCOC(=O)[C@@H]1[C@H](C(=O)Nc2ccc(Br)cc2)[C@@H]2CC[C@H]1C21CC1` (racemic) [Compound 84, (+/−)-(1S,2R,3S,4R)-Ethyl 2-((4-bromophenyl)carbamoyl)spiro[bicyclo[2.2.1]heptane-7,1′-cyclopropane]-3-carboxylate], for which, in test [1], the EC50 was 1370 nM and the “FPRL1 (rel. eff.)” value was found to be 0.74.
On to `CC1(C)[C@@H]2CC[C@H]1[C@@H](C(=O)Nc1ccc(I)cc1)[C@H]2C(=O)O` (racemic) [Compound 12, (+/−)-(1R,2S,3R,4S)-3-(4-Iodophenylcarbamoyl)-7,7-dimethylbicyclo[2.2.1]heptane-2-carboxylic Acid], for which the EC50 in test [2] (setting [4]) was determined as 0.343 µM. The “FPR1 (rel. eff.)” value in test [2] (calcium, FLIPR Tetra) was found to be 68.
Take `O=C(O)[C@@H]1[C@H](C(=O)Nc2ccc(Cl)c(Cl)c2)[C@@H]2CC[C@H]1C21CC1` (racemic) [Compound 38, (+/−)-(1R,2S,3R,4S)-3-((3,4-Dichlorophenyl)carbamoyl)spiro[bicyclo[2.2.1]heptane-7,1′-cyclopropane]-2-carboxylic Acid]: in test [1], the EC50 is 498 nM and the “FPRL1 (rel. eff.)” value is reported as 1.00.
The matching figures for `COC(=O)C1C(C(=O)Nc2ccc(Br)cc2)C2CCC1C21CC1` (racemic) [Compound 83, (+/−)-(1S,4S,5R,6S)-Methyl 2-((4-bromophenyl)carbamoyl)spiro[bicyclo[2.2.1]heptane-7,1′-cyclopropane]-3-carboxylate]: 1680 nM and 0.68.
For the compound `CC(C)=C1C2C=CC1C(C(=O)Nc1ccc(I)cc1)C2C(=O)O` (racemic) [Compound 22, (+/−)-(1S,4R,5S,6R)-6-(4-Iodophenylcarbamoyl)[bicyclo[2.2.1]hept[2]ene-7-propan-2-ylidene]-5-carboxylic Acid], the EC50 in test [2] (setting [4]) is 8.03 µM. For the same compound, the “FPR1 (rel. eff.)” value in test [2] (calcium, FLIPR Tetra) is on record as 62.
As for `COc1ccccc1NC(=O)C1C(C(=O)O)C2C=CC1C21CC1` (racemic) [Compound 29, (+/−)-(1S,4R,5S,6R)-6-((2-Methoxyphenyl)carbamoyl)spiro[bicyclo[2.2.1]hept[2]ene-7,1′-cyclopropane]-5-carboxylic Acid], in test [1], the EC50 came to 3170 nM and the “FPRL1 (rel. eff.)” value turned out to be 1.1.
In the case of `NC(=O)C1C(C(=O)Nc2ccc(Br)cc2)C2C=CC1C21CC1` (racemic) [Compound 47, (+/−)-(1R,4S,5R,6S)—N-5-(4-Bromophenyl)spiro[bicyclo[2.2.1]hept[2]ene-7,1′-cyclopropane]-5,6-dicarboxamide], the 50% effective concentration (EC50) in test [2] (setting [3]) was more than 10 µM.
On the same count and under the same terms, with `CC1(C)[C@@H]2CC[C@H]1[C@@H](C(=O)Nc1ccc(Br)cc1)[C@H]2C(N)=O` (racemic) [Compound 54, (+/−)-(1S,2R,3S,4R)—N2-(4-Bromophenyl)-7,7-dimethylbicyclo[2.2.1]heptane-2,3-dicarboxamide] the figure was more than 10 µM.

As usually defined, the EC50 is the concentration that produces a half-maximal response.
